Where a SMILES comes first, the peptide text is derived from it. [ ]: non-standard residue; d: D form.
Key:
Assay type in all cases: binding
TNKS2 ARC5 [1] = target: T1, TNKS2 ARC5 (Homo sapiens, UniProt Q9H2K2); experiment: T2 relaxation-edited ligand-observed NMR assay; conditions: DSF hit validation; for binding to TNKS2 ARC5 by ligand-observed NMR, in words: relaxation-edited and waterLOGSY; for competition with the 3BP2 TBM peptide by relaxation-edited NMR: ARC used for competition not given
T1 construct: followed by TNKS2 ARC5 (1 μL, 100 μM stock); His6-GST; made in house; host or cells: E. coli
From the text: (§1) 39 hits from the DSF screen were suitable for follow-up by ligand-observed NMR methods. We re-purchased fragments and performed T2 relaxation-edited (CPMG-edited) and waterLOGSY experiments for each fragment with TNKS2 ARC5. We explored saturation transfer difference (STD) NMR, also using TNKS2 ARC5, but the assay was not sensitive enough to produce a reliable binding signal, likely due to the relatively small size of a single ARC protein (data not shown). High ligand concentrations were required to achieve sufficient signal, which in turn could lead to false-positive hits due to non-specific binding.
Using the relaxation-edited assay, we tested each fragment in three independent measurements (Fig. 2C), unless we obtained two negative results (non-binding) in the first two experiments. […] As a negative NOE for the compound-only sample could indicate aggregation, we flagged these compounds as potentially problematic. We identified 14 fragments that bound to TNKS2 ARC5 by both relaxation-edited and waterLOGSY methods (0.78% hit rate). We next tested whether binding of these fragments occurred competitively with the 3BP2 TBM peptide, and also if they bound to TNKS2 ARC4, as competition with peptide binders at various different ARCs will be a prerequisite for an efficient substrate binding antagonist. Three fragments (1, 2, 3) bound to both TNKS2 ARC4 and ARC5 and were competitive with the TBM peptide (0.16% hit rate) (Fig. 2E). Three further fragments also bound to both ARCs, but were not TBM competitive by NMR.
(§2) Fragments were dispensed in duplicate into a 384-well plate (250 nL, 100 mM stock in DMSO). Wells were backfilled with DMSO (2.25 μL). Tankyrase ARC protein (47.5 μL in 25 mM HEPES, pH 7.5, 100 mM NaCl, 2 mM TCEP, 10% D2O; 20 μM final protein concentration in the assay) was added to the ‘protein’ samples; buffer only (47.5 μL) was added to the ‘compound-only’ samples. Solutions were transferred to 1.7 mm NMR tubes using a Gilson liquid handling system. ^1H NMR spectra were recorded, with the DMSO and water signals dampened. A relaxation spin filter was applied at 400 ms[65]. Data were processed using Bruker Topspin 3.14. Lines were broadened with LB = 3.0, and the baseline was corrected between 6.0–10.0 ppm. The average integral for all peaks between 6.0–10.0 ppm was calculated, and the difference between compound-only and compound-plus-protein samples was compared. A reduction in signal integrals of ≥15% was classified as a hit. For competitive experiments, 3BP2 16-mer peptide (100 μM) was added, and the spectra were recorded and processed as above. The variability in signal reduction in the relaxation-edited experiment was previously determined as approximately ± 10% (Liu et al., unpublished observations).

TNKS2 ARC4 [2] = target: T2, TNKS2 ARC4 (Homo sapiens, UniProt Q9H2K2); experiment: T2 relaxation-edited ligand-observed NMR assay; conditions: for binding to TNKS2 ARC4 by ligand-observed NMR, in words: DSF hit validation
T2 construct: The cell was filled with TNKS2 ARC4 (488–649); His6-GST; made in house; host or cells: E. coli
T2 sequence (Q9H2K2 488-649): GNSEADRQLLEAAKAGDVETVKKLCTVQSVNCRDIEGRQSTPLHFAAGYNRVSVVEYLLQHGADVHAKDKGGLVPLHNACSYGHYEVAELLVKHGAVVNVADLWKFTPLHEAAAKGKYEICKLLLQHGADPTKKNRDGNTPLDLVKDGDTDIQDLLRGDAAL
Procedure: We next sought close structural analogues of hit fragments 3 and 5 to gain early insights into structure-activity relationships (SAR) and binding modes of hit fragments. We initially tested the analogues using both relaxation-edited and waterLOGSY NMR assays against TNKS2 ARC4 (Table 1), followed by protein-observed NMR if binding was detected in both ligand-observed NMR experiments.
as §2

TNKS2 ARC5 [3] = target: T1, TNKS2 ARC5; experiment: WaterLOGSY NMR assay
From the text: as §1
Using the relaxation-edited assay, we tested each fragment in three independent measurements (Fig. 2C), unless we obtained two negative results (non-binding) in the first two experiments. […] As a negative NOE for the compound-only sample could indicate aggregation, we flagged these compounds as potentially problematic. We identified 14 fragments that bound to TNKS2 ARC5 by both relaxation-edited and waterLOGSY methods (0.78% hit rate). […]
Fragments were dispensed in duplicate into a 384-well plate (250 nL, 100 mM stock in DMSO). […] Solutions were transferred to 1.7 mm NMR tubes using a Gilson liquid handling system. ^1H NMR spectra were recorded, with the DMSO signal dampened. […]

TNKS2 ARC4 [4] = target: T2, TNKS2 ARC4; experiment: Fluorescence polarisation (FP) competition assay with Cy5-labelled TBM peptide probe; conditions: for FP competition, result in words: peptide titrated up to 1 mM; for IC50: 5 nM Cy5-RSPPDGQS probe, 5 µM TNKS2 ARC4
From the text: Given the anticipated impairment of cell permeability by the N-terminal TBM arginine, we investigated whether the guanidine group could be substituted. To prioritise synthesis efforts, we followed an in-silico docking approach, exploring the importance of the positive charge and hydrogen bonding interactions, linker lengths/flexibility and side chain geometry (see Supplementary Materials and Methods for details). From commercially available side chain alternatives, we identified five potential candidates for R replacements: 1H-imidazole-5-pentanoic acid, 1H-imidazole-1-pentanoic acid, 7-aminoheptanoic acid, D-arginine and L-citrulline (Supplementary Fig. 1). We next synthesised 3BP2 TBM octapeptides, incorporating the five arginine substituents at position 1, followed by fluorescence polarisation (FP) assays to assess competition of the peptides with a Cy5-labelled TBM peptide probe (Supplementary Fig. 1). We used a 16-mer TBM peptide (LPHLQRSPPDGQSFRSW, W introduced to measure A280) derived from the model substrate 3BP2, a signalling adapter protein[4], as a positive control for a competitor, and a corresponding non-binding TBM peptide bearing a glycine-to-arginine substitution at position 6[4] as a negative control. […]
Fluorescence polarisation assay
Unlabelled arginine substituent peptides were titrated up to 1 mM in the presence of 5 nM of a labelled peptide probe (Cy5-RSPPDGQS, JPT Peptide Technologies) and 5 µM TNKS2 ARC4. 3BP2 16-mer peptide was used as a positive control, and the same peptide with the glycine at position 6 mutated to arginine (G6R) was used as a negative control. Plus F ProxiPlates (PerkinElmer) were used with a 2103 Envision Multilabel plate reader (PerkinElmer), fitted with 620 nm (excitation) and 688 nm (emission) filters. Filter bandwidths were 10 nm. A Nanodrop 2000 was used for measuring protein and probe concentrations by UV absorption. TNKS2 ARC4 protein was thawed from -80 ° C, and centrifuged at 13,000 […]
Two independent experiments were performed in technical duplicate. A 2´ stock solution containing TNKS2 ARC4 protein (10 µM) and fluorescently tagged probe (10 nM) in assay buffer (25 mM HEPES-NaOH pH 7.5, 100 mM NaCl, 1 mM TCEP, 0.01% CHAPS) was prepared. A 2-fold dilution series of untagged peptide in assay buffer was made (0 – 2 mM).
Protein and peptide stock solutions were mixed 1:1. Blank samples contained assay buffer only. The plate was sealed, centrifuged for 1 min at 1000 ´ g, and then incubated in the dark for 30 min before reading. Readings were taken with 50 flashes per well, and measured in millipolarisation (mP) units. Data were exported to Microsoft Excel, and analysed in GraphPad Prism 6.0. The means of technical duplicate values were calculated for both experiments, and FP values were plotted against unlabelled peptide concentration. Curves were normalised using the overall mean maximum and minimum FP values of the control 3BP2 TBM peptide. Curves were fitted using a non-linear regression, log(inhibitor) vs. response – variable slope (four parameters) model.
Multiple sequence alignments and amino acid identity mapping
Sequences of tankyrase ARCs were aligned using ClustalX (version 2.0) 4. […]
Supplementary Figure 1. Binding of TBM peptides containing arginine substituents to TNKS2 ARC4, measured in a fluorescence polarisation (FP) competition assay. Data points are means of technical duplicates from two independent experiments. […]

T1 sequence (Q9H2K2 641-800): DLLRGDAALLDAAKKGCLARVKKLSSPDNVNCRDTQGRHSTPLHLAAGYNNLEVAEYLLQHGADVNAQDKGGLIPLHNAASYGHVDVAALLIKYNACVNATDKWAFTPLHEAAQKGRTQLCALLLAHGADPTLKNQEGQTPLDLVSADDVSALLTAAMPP

For COc1ccc2c(OC(C)=O)coc2c1 [compound 2], which “binding to TNKS2 ARC5 by ligand-observed NMR, in words” value (TNKS2 ARC5 [1]) is on record?
The value was “bound”.

And the “competition with the 3BP2 TBM peptide by relaxation-edited NMR” value (TNKS2 ARC5 [1])?
The value was “competitive”.

What about the “binding to TNKS2 ARC4 by ligand-observed NMR, in words” value (TNKS2 ARC4 [2]) of the same molecule?
The value was “bound”.

Which “binding to TNKS2 ARC5 by ligand-observed NMR, in words” value (TNKS2 ARC5 [1]) does the source give for O=S(=O)(Nc1cccc(O)c1)c1ccc(Cl)cc1 [compound 1] here?
Its value is “bound”.

What about the “competition with the 3BP2 TBM peptide by relaxation-edited NMR” value (TNKS2 ARC5 [1]) of the same molecule?
The value was “competitive”.

And the “binding to TNKS2 ARC4 by ligand-observed NMR, in words” value (TNKS2 ARC4 [2])?
Its value is “bound”.

What about the waterLOGSY (TNKS2 ARC5 [3]) of the same molecule?
Its waterLOGSY is “negative NOE signal”.

Which “T2 relaxation-edited: competition with 3BP2 TBM peptide” value (TNKS2 ARC4 [2]; 3BP2 16-mer peptide 100 μM) does the source give for NC(=O)Cc1coc2ccc3ccccc3c12 [compound 4] here?
The value was “competitive”.

For 7-aminoheptanoic acid, which “FP competition, result in words” value (TNKS2 ARC4 [4]) is on record?
The value was “poor competition”.

With N=C(N)NCCC[C@H](N)C(=O)N[C@@H](CO)C(=O)N1CCC[C@H]1C(=O)N1CCC[C@H]1C(=O)N[C@@H](CC(=O)O)C(=O)NCC(=O)N[C@@H](CCC(N)=O)C(=O)N[C@@H](CO)C(=O)O [8-mer RSPPDGQS TBM peptide, RSPPDGQS, reference compound] (H-RSPPDGQS-OH) as the molecule, how does the IC50 (TNKS2 ARC4 [4]) read?
Its IC50 is 34 µM.

N=C(N)NCCC[C@@H](N)C(=O)N[C@@H](CO)C(=O)N1CCC[C@H]1C(=O)N1CCC[C@H]1C(=O)N[C@@H](CC(=O)O)C(=O)NCC(=O)N[C@@H](CCC(N)=O)C(=O)N[C@@H](CO)C(=O)O [D-arginine] (H-[dR]SPPDGQS-OH) was tested. Which IC50 (TNKS2 ARC4 [4]) did it give?
The IC50 was 175 µM.

For citrulline, which “FP competition, result in words” value (TNKS2 ARC4 [4]) is on record?
The value was “poor competition”.

From publication PMC6911004, “Fragment-based screening identifies molecules targeting the substrate-binding ankyrin repeat domains of tankyrase” (Scientific Reports, 2019)
